Experimental data published in PubChem BioAssay AID2060899 (Molecular Pharmacology Branch, DTP, NCI, 2025).

Test system: 565726-208-R1-J5-PDC complex spheroids, growth inhibition
Experiment: Anticancer human tumor 565726-208-R1-J5-PDC patient-derived pancreatic adenocarcinoma cell line growth inhibition [RAS]
Conditions: for IC50: curve of first compound; for viability, T/C: stronger effect = lower value
In short: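 Multi-cell-type spheroids: tumor cells plus HUVEC endothelial cells and mesenchymal stem cells. RAS-pathway inhibitors were combined with targeted agents, each dosed in half-log steps down from clinical Cmax, or from 10 microM when Cmax was unknown.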

[1] = second compound 0.0316 µM, first compound 0.0316 µM
[2] = second compound 0.0316 µM, first compound 0.1 µM
[3] = second compound 0.0316 µM, first compound 0.316 µM
[4] = second compound 0.0316 µM, first compound 1 µM
[5] = second compound 0.0316 µM, first compound 3.16 µM
[6] = second compound 0.0316 µM, first compound 10 µM
[7] = second compound 0.1 µM, first compound 0.0316 µM
[8] = second compound 0.1 µM, first compound 0.1 µM
[9] = second compound 0.1 µM, first compound 0.316 µM
[10] = second compound 0.1 µM, first compound 1 µM
[11] = second compound 0.1 µM, first compound 3.16 µM
[12] = second compound 0.1 µM, first compound 10 µM
[13] = second compound 0.316 µM, first compound 0.0316 µM
[14] = second compound 0.316 µM, first compound 0.1 µM
[15] = second compound 0.316 µM, first compound 0.316 µM
[16] = second compound 0.316 µM, first compound 1 µM
[17] = second compound 0.316 µM, first compound 3.16 µM
[18] = second compound 0.316 µM, first compound 10 µM
[19] = second compound 1 µM, first compound 0.0316 µM
[20] = second compound 1 µM, first compound 0.1 µM
[21] = second compound 1 µM, first compound 0.316 µM
[22] = second compound 1 µM, first compound 1 µM
[23] = second compound 1 µM, first compound 3.16 µM
[24] = second compound 1 µM, first compound 10 µM
[25] = second compound 3.16 µM, first compound 0.0316 µM
[26] = second compound 3.16 µM, first compound 0.1 µM
[27] = second compound 3.16 µM, first compound 0.316 µM
[28] = second compound 3.16 µM, first compound 1 µM
[29] = second compound 3.16 µM, first compound 3.16 µM
[30] = second compound 3.16 µM, first compound 10 µM
[31] = second compound 10 µM, first compound 0.0316 µM
[32] = second compound 10 µM, first compound 0.1 µM
[33] = second compound 10 µM, first compound 0.316 µM
[34] = second compound 10 µM, first compound 1 µM
[35] = second compound 10 µM, first compound 3.16 µM
[36] = second compound 10 µM, first compound 10 µM
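Further: spheroids exposed to compounds for seven days before readout.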
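Wherever viability, T/C is given: 100% = DMSO vehicle control viability.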

Compound: Cc1nc(N2CCC3(CC2)COC(C)C3N)c(CO)nc1Sc1ccnc(N)c1Cl (stereo unspecified) + C#Cc1c(F)ccc2cc(O)cc(-c3ncc4c(N5CC6CCC(C5)N6)nc(OCC56CCCN5CC(F)C6)nc4c3F)c12
- IC50 (second compound 0.0316 µM): > 10000 nM
- IC50 (second compound 0.1 µM): > 10000 nM
- IC50 (second compound 0.316 µM): > 10000 nM
- IC50 (second compound 1 µM): > 10000 nM
- IC50 (second compound 3.16 µM): 313 nM
- IC50 (second compound 10 µM): 229 nM
- viability, T/C [1]: 116%
- viability, T/C [2]: 125%
- viability, T/C [3]: 79.6%
- viability, T/C [4]: 77.1%
- viability, T/C [5]: 90.7%
- viability, T/C [6]: 104%
- viability, T/C [7]: 103%
- viability, T/C [8]: 112%
- viability, T/C [9]: 71.6%
- viability, T/C [10]: 72.8%
- viability, T/C [11]: 92.4%
- viability, T/C [12]: 101%
- viability, T/C [13]: 130%
- viability, T/C [14]: 108%
- viability, T/C [15]: 74.5%
- viability, T/C [16]: 67.8%
- viability, T/C [17]: 90.2%
- viability, T/C [18]: 80.3%
- viability, T/C [19]: 119%
- viability, T/C [20]: 106%
- viability, T/C [21]: 55.8%
- viability, T/C [22]: 53.4%
- viability, T/C [23]: 57.8%
- viability, T/C [24]: 71.1%
- viability, T/C [25]: 108%
- viability, T/C [26]: 94.5%
- viability, T/C [27]: 49.6%
- viability, T/C [28]: 42.8%
- viability, T/C [29]: 46%
- viability, T/C [30]: 57.3%
- viability, T/C [31]: 80.9%
- viability, T/C [32]: 66.1%
- viability, T/C [33]: 43.5%
- viability, T/C [34]: 35.9%
- viability, T/C [35]: 34.6%
- viability, T/C [36]: 33%

Compound: CCc1c2c(nc3ccc(O)cc13)-c1cc3c(c(=O)n1C2)COC(=O)[C@]3(O)CC + C#Cc1c(F)ccc2cc(O)cc(-c3ncc4c(N5CC6CCC(C5)N6)nc(OCC56CCCN5CC(F)C6)nc4c3F)c12
- IC50 (second compound 0.0316 µM): 4.16 nM
- IC50 (second compound 0.1 µM): 4.06 nM
- IC50 (second compound 0.316 µM): 3.83 nM
- IC50 (second compound 1 µM): 2.73 nM
- IC50 (second compound 3.16 µM): 3.14 nM
- IC50 (second compound 10 µM): 1.5 nM
- viability, T/C (second compound 0.0316 µM, first compound 0.000949 µM): 74.2%
- viability, T/C (second compound 0.0316 µM, first compound 0.003 µM): 56.9%
- viability, T/C (second compound 0.0316 µM, first compound 0.00949 µM): 34%
- viability, T/C (second compound 0.0316 µM, first compound 0.03 µM): 20.2%
- viability, T/C (second compound 0.0316 µM, first compound 0.0949 µM): 12.5%
- viability, T/C (second compound 0.0316 µM, first compound 0.3 µM): 5.35%
- viability, T/C (second compound 0.1 µM, first compound 0.000949 µM): 97.8%
- viability, T/C (second compound 0.1 µM, first compound 0.003 µM): 56%
- viability, T/C (second compound 0.1 µM, first compound 0.00949 µM): 31.8%
- viability, T/C (second compound 0.1 µM, first compound 0.03 µM): 19.4%
- viability, T/C (second compound 0.1 µM, first compound 0.0949 µM): 13.1%
- viability, T/C (second compound 0.1 µM, first compound 0.3 µM): 6.83%
- viability, T/C (second compound 0.316 µM, first compound 0.000949 µM): 81.1%
- viability, T/C (second compound 0.316 µM, first compound 0.003 µM): 56.2%
- viability, T/C (second compound 0.316 µM, first compound 0.00949 µM): 30.2%
- viability, T/C (second compound 0.316 µM, first compound 0.03 µM): 20.6%
- viability, T/C (second compound 0.316 µM, first compound 0.0949 µM): 13.9%
- viability, T/C (second compound 0.316 µM, first compound 0.3 µM): 6.04%
- viability, T/C (second compound 1 µM, first compound 0.000949 µM): 70.8%
- viability, T/C (second compound 1 µM, first compound 0.003 µM): 43%
- viability, T/C (second compound 1 µM, first compound 0.00949 µM): 35.9%
- viability, T/C (second compound 1 µM, first compound 0.03 µM): 22.4%
- viability, T/C (second compound 1 µM, first compound 0.0949 µM): 11.8%
- viability, T/C (second compound 1 µM, first compound 0.3 µM): 6.08%
- viability, T/C (second compound 3.16 µM, first compound 0.000949 µM): 58.8%
- viability, T/C (second compound 3.16 µM, first compound 0.003 µM): 54.6%
- viability, T/C (second compound 3.16 µM, first compound 0.00949 µM): 29.1%
- viability, T/C (second compound 3.16 µM, first compound 0.03 µM): 22.1%
- viability, T/C (second compound 3.16 µM, first compound 0.0949 µM): 14.1%
- viability, T/C (second compound 3.16 µM, first compound 0.3 µM): 7.99%
- viability, T/C (second compound 10 µM, first compound 0.000949 µM): 52.6%
- viability, T/C (second compound 10 µM, first compound 0.003 µM): 49.1%
- viability, T/C (second compound 10 µM, first compound 0.00949 µM): 30.1%
- viability, T/C (second compound 10 µM, first compound 0.03 µM): 30.9%
- viability, T/C (second compound 10 µM, first compound 0.0949 µM): 20.3%
- viability, T/C (second compound 10 µM, first compound 0.3 µM): 8.91%

Compound: CC1(O)CCCC1n1c(=O)c(C(F)F)cc2cnc(NC3CCN(S(C)(=O)=O)CC3)nc21 (stereo unspecified) + C#Cc1c(F)ccc2cc(O)cc(-c3ncc4c(N5CC6CCC(C5)N6)nc(OCC56CCCN5CC(F)C6)nc4c3F)c12
- IC50 (second compound 0.0316 µM): 3320 nM
- IC50 (second compound 0.1 µM): 3290 nM
- IC50 (second compound 0.316 µM): 3900 nM
- IC50 (second compound 1 µM): 1540 nM
- IC50 (second compound 3.16 µM): 1140 nM
- IC50 (second compound 10 µM): 606 nM
- viability, T/C [1]: 82.3%
- viability, T/C [2]: 87.4%
- viability, T/C [3]: 76.7%
- viability, T/C [4]: 56.2%
- viability, T/C [5]: 62.2%
- viability, T/C [6]: 5.34%
- viability, T/C [7]: 93.8%
- viability, T/C [8]: 103%
- viability, T/C [9]: 69.9%
- viability, T/C [10]: 65.9%
- viability, T/C [11]: 63.7%
- viability, T/C [12]: 4.76%
- viability, T/C [13]: 91.6%
- viability, T/C [14]: 95%
- viability, T/C [15]: 75.6%
- viability, T/C [16]: 66.2%
- viability, T/C [17]: 69%
- viability, T/C [18]: 5.83%
- viability, T/C [19]: 96%
- viability, T/C [20]: 93.9%
- viability, T/C [21]: 59.7%
- viability, T/C [22]: 55%
- viability, T/C [23]: 50.9%
- viability, T/C [24]: 5.01%
- viability, T/C [25]: 88.4%
- viability, T/C [26]: 81.7%
- viability, T/C [27]: 55.6%
- viability, T/C [28]: 50%
- viability, T/C [29]: 46.4%
- viability, T/C [30]: 2.99%
- viability, T/C [31]: 78.8%
- viability, T/C [32]: 67.1%
- viability, T/C [33]: 53.1%
- viability, T/C [34]: 43.9%
- viability, T/C [35]: 32.4%
- viability, T/C [36]: 0.3%
